The term pIC50 denotes the negative decadic logarithm of the IC50, by convention in mol/L. In general, viability, T/C refers to the ratio of treated to control.

pIC50: −log10 of the molar value. Values joined by “and” are separate entries in the source; they are usually repeats but may differ in a detail not shown here. Equal entries are not always repeated.

The test system of this experiment is 292921-168-R-J2-PDC complex spheroid growth. Put plainly: Anticancer human tumor 292921-168-R-J2-PDC patient-derived pancreatic carcinoma cell line growth inhibition [AhR]. As to conditions: for viability, T/C: stronger effect = lower value. Summed up:
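Complex tumor spheroids co-cultured with HUVEC and human MSC stroma; AhR antagonists tested in combination with standard-of-care and investigational agents. Top concentration at or near clinical Cmax (else 10 microM), half-log dilutions; growth expressed as percent test/control.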

[1] abbreviates: curve of first compound, second compound 0.1 µM.
The mark [2] stands for this setting: curve of first compound, second compound 0.316 µM.
Setting [3] is: curve of first compound, second compound 1 µM.
Setting [4] is: curve of first compound, second compound 3.16 µM.
Setting [5] is: curve of first compound, second compound 10 µM.
Setting [6] is: second compound 0.1 µM, first compound 0.0316 µM.
[7] abbreviates: second compound 0.1 µM, first compound 0.1 µM.
The mark [8] stands for this setting: second compound 0.1 µM, first compound 0.316 µM.
The mark [9] stands for this setting: second compound 0.1 µM, first compound 1 µM.
[10] abbreviates: second compound 0.1 µM, first compound 3.16 µM.
Where [11] appears, read: second compound 0.1 µM, first compound 10 µM.
[12] abbreviates: second compound 0.316 µM, first compound 0.0316 µM.
Where [13] appears, read: second compound 0.316 µM, first compound 0.1 µM.
Where [14] appears, read: second compound 0.316 µM, first compound 0.316 µM.
Where [15] appears, read: second compound 0.316 µM, first compound 1 µM.
The mark [16] stands for this setting: second compound 0.316 µM, first compound 3.16 µM.
Where [17] appears, read: second compound 0.316 µM, first compound 10 µM.
The mark [18] stands for this setting: second compound 1 µM, first compound 0.0316 µM.
The mark [19] stands for this setting: second compound 1 µM, first compound 0.1 µM.
Setting [20] is: second compound 1 µM, first compound 0.316 µM.
The mark [21] stands for this setting: second compound 1 µM, first compound 1 µM.
[22] abbreviates: second compound 1 µM, first compound 3.16 µM.
Setting [23] is: second compound 1 µM, first compound 10 µM.
[24] abbreviates: second compound 3.16 µM, first compound 0.0316 µM.
Setting [25] is: second compound 3.16 µM, first compound 0.1 µM.
[26] abbreviates: second compound 3.16 µM, first compound 0.316 µM.
The mark [27] stands for this setting: second compound 3.16 µM, first compound 1 µM.
[28] abbreviates: second compound 3.16 µM, first compound 3.16 µM.
[29] abbreviates: second compound 3.16 µM, first compound 10 µM.
Where [30] appears, read: second compound 10 µM, first compound 0.0316 µM.
Setting [31] is: second compound 10 µM, first compound 0.1 µM.
Where [32] appears, read: second compound 10 µM, first compound 0.316 µM.
[33] abbreviates: second compound 10 µM, first compound 1 µM.
Where [34] appears, read: second compound 10 µM, first compound 3.16 µM.
[35] abbreviates: second compound 10 µM, first compound 10 µM.
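Also: spheroids exposed to compounds for seven days after three days of growth.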

Turning to `CC(C)CC(NC(=O)C(Cc1ccccc1)NC(=O)c1cnccn1)B(O)O` (centres undefined) + CC(CO)NC(=O)c1cc(-c2ccc(Cl)cc2)nn(-c2cnn(C)c2)c1=O, the pIC50 was 8.21 under setting [1]; 8.27 under setting [2]; 8.22 under setting [3]; 8.28 under setting [4]; 8.35 under setting [5]. Moreover, the viability, T/C by setting is: (second compound 0.1 µM, first compound 0.000949 µM) 105%; (second compound 0.1 µM, first compound 0.003 µM) 107%; (second compound 0.1 µM, first compound 0.00949 µM) 15.2%; (second compound 0.1 µM, first compound 0.03 µM) 2.8%; (second compound 0.1 µM, first compound 0.0949 µM) 1.2%; (second compound 0.1 µM, first compound 0.3 µM) 0.49%. Further, the viability, T/C (second compound 0.316 µM, first compound 0.000949 µM) was 109%; the viability, T/C (second compound 0.316 µM, first compound 0.003 µM) was 90.4%; the viability, T/C (second compound 0.316 µM, first compound 0.00949 µM) was 11.8%; the viability, T/C (second compound 0.316 µM, first compound 0.03 µM) is 1.8%; the viability, T/C (second compound 0.316 µM, first compound 0.0949 µM) was 0.5%; the viability, T/C (second compound 0.316 µM, first compound 0.3 µM) was 0.59%. The viability, T/C (second compound 1 µM, first compound 0.000949 µM) was 101%; the viability, T/C (second compound 1 µM, first compound 0.003 µM) is 102%; the viability, T/C (second compound 1 µM, first compound 0.00949 µM) is 15.8%; the viability, T/C (second compound 1 µM, first compound 0.03 µM) is 2.98%; the viability, T/C (second compound 1 µM, first compound 0.0949 µM) was 1.25%; the viability, T/C (second compound 1 µM, first compound 0.3 µM) is 1.42%. For the same molecule, the viability, T/C runs as follows: (second compound 3.16 µM, first compound 0.000949 µM) 85.8%; (second compound 3.16 µM, first compound 0.003 µM) 85.6%; (second compound 3.16 µM, first compound 0.00949 µM) 13.2%; (second compound 3.16 µM, first compound 0.03 µM) 2.3%; (second compound 3.16 µM, first compound 0.0949 µM) 2.01%; (second compound 3.16 µM, first compound 0.3 µM) 1.89%. Further, the viability, T/C by setting is: (second compound 10 µM, first compound 0.000949 µM) 77.6%; (second compound 10 µM, first compound 0.003 µM) 70%; (second compound 10 µM, first compound 0.00949 µM) 11%; (second compound 10 µM, first compound 0.03 µM) 1.4%; (second compound 10 µM, first compound 0.0949 µM) 2.28%; (second compound 10 µM, first compound 0.3 µM) 2.01%.
As to `COc1ccc([C@@H](O)c2cc(-c3ncnc4cc(N5CCOCC5)ccc34)c(F)cc2Cl)nn1` + Cc1ccccc1N=Nc1ccc(NC(=O)c2ccnn2C)c(C)c1, the pIC50 is, setting by setting: under setting [1], 5.71; under setting [2], 5.71; under setting [3], 5.78; under setting [4], 5.88; under setting [5], 6.28. In addition, the viability, T/C runs as follows: under setting [6], 89.1%; under setting [7], 81.5%; under setting [8], 81%; under setting [9], 56.2%; under setting [10], 44.9%; under setting [11], 27%. The viability, T/C is 90% under setting [12]; 80.9% under setting [13]; 79.2% under setting [14]; 59.7% under setting [15]; 42.1% under setting [16]; 24% under setting [17]. Besides, the viability, T/C is, setting by setting: under setting [18], 76.5%; under setting [19], 81.6%; under setting [20], 71.6%; under setting [21], 55.8%; under setting [22], 41%; under setting [23], 22.4%. Besides, the viability, T/C is, setting by setting: under setting [24], 70.7%; under setting [25], 68%; under setting [26], 66.6%; under setting [27], 52%; under setting [28], 38.5%; under setting [29], 21%. The viability, T/C under setting [30] was 57.4%; the viability, T/C under setting [31] was 54.6%; the viability, T/C under setting [32] was 53.7%; the viability, T/C under setting [33] was 46.8%; the viability, T/C under setting [34] is 34.9%; the viability, T/C under setting [35] was 20.4%.
`COc1ccc([C@@H](O)c2cc(-c3ncnc4cc(N5CCOCC5)ccc34)c(F)cc2Cl)nn1`: the viability, T/C by setting is: (compound 0.0316 µM) 92.7% and 96.3% and 98.8%; (compound 0.1 µM) 99.2% and 95.5% and 101%; (compound 0.316 µM) 88% and 86.4% and 84.7%; (compound 1 µM) 64.6% and 70.2% and 62.2%; (compound 3.16 µM) 42.2% and 44.8% and 43.1%; (compound 10 µM) 27.6% and 24.4% and 25.5%. Also, the pIC50 (curve of compound) was 5.69 and 5.60 and 5.70.
Take `NS(=O)(=O)OCC1CC(n2ccc3c(NC4CCc5ccccc54)ncnc32)CC1O` (centres undefined) + Cc1ccccc1N=Nc1ccc(NC(=O)c2ccnn2C)c(C)c1: the negative logarithm of the IC50 (pIC50) under setting [1] was 6.72; the negative logarithm of the IC50 (pIC50) under setting [2] is 6.77; the negative logarithm of the IC50 (pIC50) under setting [3] is 6.79; the pIC50 under setting [4] was 6.86; the pIC50 under setting [5] is 6.94. For the same molecule, the viability, T/C by setting is: under setting [6], 122%; under setting [7], 88.3%; under setting [8], 19.3%; under setting [9], 4.4%; under setting [10], 3.09%; under setting [11], 2.81%. Moreover, the viability, T/C by setting is: under setting [12], 128%; under setting [13], 77.9%; under setting [14], 15.7%; under setting [15], 4.5%; under setting [16], 4.78%; under setting [17], 3.59%. Besides, the viability, T/C by setting is: under setting [18], 111%; under setting [19], 73.6%; under setting [20], 16.2%; under setting [21], 6.04%; under setting [22], 3.96%; under setting [23], 5.05%. Moreover, the viability, T/C runs as follows: under setting [24], 100%; under setting [25], 64%; under setting [26], 13.8%; under setting [27], 4.58%; under setting [28], 8.31%; under setting [29], 2.91%. Besides, the viability, T/C runs as follows: under setting [30], 88.9%; under setting [31], 55.2%; under setting [32], 13.7%; under setting [33], 5.55%; under setting [34], 3.67%; under setting [35], 2.58%.
Turning to `Nc1ncn(C2CC(O)C(CO)O2)c(=O)n1` (centres undefined), the viability, T/C was 107% and 102% and 96.8% (compound 0.00316 µM); 99.8% and 97.5% and 103% (compound 0.01 µM); 95.7% and 100% and 89.4% (compound 0.0316 µM); 93.7% and 93.1% and 77.7% (compound 0.1 µM); 86.8% and 83% and 89% (compound 0.316 µM); 76.3% and 76.8% and 78.2% (compound 1 µM). The pIC50 (curve of compound) was under 6.00.
